Reference: patent US20110262359A1, “COMPOSITIONS COMPRISING ENZYME-CLEAVABLE PRODRUGS OF ACTIVE AGENTS AND INHIBITORS THEREOF” (priority 2010, published 2011)

Key:
[1] = Oral administration of Compound PC-3 and Compound 101 trypsin inhibitor to rats; type: in vivo
[2] = Oral administration of Compound PC-4 and Compound 101 trypsin inhibitor to rats; type: in vivo
[3] = In vivo tolerability of Compound KC-3 in rats (IV); conditions: rat IV
Procedure: Male naïve Sprague-Dawley rats, 4 per dose, were used in the study. Rats were weighed, and then placed under a heat lamp for 15-20 minutes to dilate the lateral tail veins. […] Before dosing, rats were placed in Broome restrainers and the drug was introduced into one of the tail veins using a syringe and needle. […] Blood samples were collected 5 minutes post-dose via the saphenous vein. The rats were observed up to 24 hours.

[4] = molecular target: T1, trypsin from bovine pancreas (Bos taurus, UniProt P00760); assay: In vitro trypsin conversion of ketone-modified opioid prodrugs to oxycodone or hydrocodone and inhibition by Compound 109; type: biochemical; set-up: trypsin from bovine pancreas; purchased Sigma-Aldrich T8003; host or cells: bovine pancreas (tissue-derived); conditions: 241 BAEE U trypsin/mL; 0.761 mM prodrug; no inhibitor; 37° C.
T1 sequence (P00760 24-246): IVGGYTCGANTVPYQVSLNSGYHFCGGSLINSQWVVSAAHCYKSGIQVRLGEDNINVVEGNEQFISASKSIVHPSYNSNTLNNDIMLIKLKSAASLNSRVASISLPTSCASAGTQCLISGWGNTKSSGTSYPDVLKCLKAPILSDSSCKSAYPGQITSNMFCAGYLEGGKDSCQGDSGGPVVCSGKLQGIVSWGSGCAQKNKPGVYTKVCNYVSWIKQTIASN

[5] = male, Sprague Dawley, rat, in vivo
[6] = In vitro stability of Compound KC-3 to household chemicals and enzyme preparations; type: physicochemical; conditions: vodka, baking soda, WINDEX, vinegar at RT or 80° C.; GNC Super Digestive, tenderizer, subtilisn at RT; 1 or 24 hr
Procedure: Samples were incubated as described. Aliquots were removed at 1 hr and 24 hr and stabilized by adding each to a solution of 50% or 100% of 85% phosphoric acid solution to achieve a final pH of less than or equal to pH 4. The stabilized aliquots were then diluted 4- to 6-fold with water, vortex-mixed and applied to HPLC.

[7] = Oral administration of Compound PC-1 and BBSI inhibitor to rats; type: in vivo; conditions: PC-1 20 mg/kg
[8] = Oral administration of Compound PC-1 and SBTI trypsin inhibitor to rats (hydromorphone in blood); conditions: for Maximum concentration (Cmax) of hydromorphone in rat blood: PC-1 20 mg/kg
[9] = Oral administration of Compound PC-1 and SBTI in the presence of ovalbumin to rats (hydromorphone in plasma); type: in vivo; conditions: for Maximum concentration (Cmax) of hydromorphone in rat plasma: PC-1 20 mg/kg
[10] = Oral administration of Compound PC-2 and SBTI trypsin inhibitor to rats; type: in vivo; conditions: for Cmax of hydromorphone in rat plasma: PC-2 20 mg/kg
[11] = Oral administration of Compound PC-3 and SBTI trypsin inhibitor to rats; type: in vivo; conditions: for Cmax of hydromorphone in rat plasma / Tmax of hydromorphone in rat plasma: PC-3 20 mg/kg
[12] = Oral administration of Compound PC-4 and SBTI trypsin inhibitor to rats; type: in vivo; conditions: for Cmax of HM in rat plasma / Tmax of HM in rat plasma: PC-4 20 mg/kg
[13] = molecular target: T1, trypsin from bovine pancreas; assay: In vitro trypsin conversion of prodrugs to hydromorphone and inhibition by trypsin inhibitor
trypsin = molecular target: T2, trypsin (Bos taurus, UniProt P00760); assay: In vitro IC50 of trypsin inhibitors, modified trypsin assay; type: biochemical; conditions: trypsin inhibition
T2 sequence (P00760 24-246): T1 sequence (P00760 24-246)

[14] = PC-3 20 mg/kg, Compound 101 10 mg/kg
[15] = PC-4 20 mg/kg, Compound 101 10 mg/kg

CCOC(=O)N1CCN(C(=O)[C@H](CCCNC(=N)N)NS(=O)(=O)c2ccc3ccccc3c2)CC1 [Compound 101, (S)-ethyl 4-(5-guanidino-2-(naphthalene-2-sulfonamido)pentanoyl)piperazine-1-carboxylate]
effect of Compound 101 on release of hydromorphone from Compound PC-3 ([1]; rat PO, PC-3 20 mg/kg with Compound 101 10 mg/kg): attenuates Compound PC-3's ability to release hydromorphone, both with respect to suppressing Cmax and delaying Tmax
effect of Compound 101 on release of hydromorphone from Compound PC-4 ([2]; rat PO, PC-4 20 mg/kg with Compound 101 10 mg/kg): attenuates Compound PC-4's ability to release hydromorphone, both with respect to suppressing Cmax and delaying Tmax

COc1ccc2c3c1O[C@H]1C(OC(=O)N(C)CCNC(=O)[C@H](CCCNC(=N)N)NC(=O)CC(=O)O)=CC[C@@]4(O)[C@@H](C2)N(C)CC[C@]314 [Compound KC-3, N-{(S)-4-guanidino-1-[2-(methyl-[(5R,9R,13S,14S)-4,5a-epoxy-6,7-didehydro-14-hydroxy-3-methoxy-17-methylmorphinan-6-oxy]carbonyl-amino)-ethylcarbamoyl]-butyl}-malonamic acid]
dose tolerated by rats [3]: 97 µmol/kg
time to recover to normal activity ([3]; KC-3 97 μmol/kg): ≤ 2 min
Rate of oxycodone formation, umol/h/BAEE U Average ± sd [4]: 0.0684 ± 0.0009 umol/h/BAEE U
Compound conc. in CSF [5]: 34.1 ng/mL
Compound conc. in Plasma, ng/mL [5]: 59,225 ng/mL
Plasma/CSF partitioning coefficient [5]: 1,737
conversion of Compound KC-3 to oxycodone on exposure to household chemicals and enzyme preparations [6]: less than 10%

CC(=O)NC(CCCNC(=N)N)C(=O)NCCN(C)C(=O)Oc1ccc2c3c1OC1C(=O)CCC4C(C2)N(C)CCC314 (centres unmarked) [Compound PC-1, hydromorphone 3-(N-methyl-N-(2-N′-acetylarginylamino)) ethylcarbamate]
Maximum concentration (Cmax) of hydromorphone in rat blood ([7]; BBSI 0 mg/kg, n = 4): 16.5 ± 5.3 ng/mL
Maximum concentration (Cmax) of hydromorphone in rat blood ([7]; BBSI 100 mg/kg, n = 3 (3 of the 4 rats)): 10.6 ± 5.9 ng/mL
Maximum concentration (Cmax) of hydromorphone in rat blood ([7]; BBSI 100 mg/kg, n = 4): 18.7 ± 17.0 ng/mL
Cmax of hydromorphone of the rat not included in n = 3 analysis ([7]; BBSI 100 mg/kg, one rat): 43 ng/mL
range of Cmax of hydromorphone of the other rats ([7]; rat PO, BBSI 100 mg/kg, the 3 rats of the n = 3 analysis): 6.8 to 17 ng/mL
Maximum concentration (Cmax) of hydromorphone in rat blood ([8]; SBTI 0 mg/kg): 16.5 ± 5.3 ng/mL
Maximum concentration (Cmax) of hydromorphone in rat blood ([8]; SBTI 10 mg/kg): 8.9 ± 1.8 ng/mL
Maximum concentration (Cmax) of hydromorphone in rat blood ([8]; SBTI 100 mg/kg): 6.0 ± 4.0 ng/mL
Maximum concentration (Cmax) of hydromorphone in rat blood ([8]; SBTI 500 mg/kg, lower limit of quantitation 5 ng/mL): <5 ng/mL
Maximum concentration (Cmax) of hydromorphone in rat blood ([8]; SBTI 1000 mg/kg, lower limit of quantitation 5 ng/mL): <5 ng/mL
Maximum concentration (Cmax) of hydromorphone in rat plasma ([9]; OVA 0 mg/kg, SBTI 0 mg/kg): 13.3 ± 3.7 ng/mL
Maximum concentration (Cmax) of hydromorphone in rat plasma ([9]; OVA 20 mg/kg, SBTI 0 mg/kg): 11.0 ± 5.4 ng/mL
Maximum concentration (Cmax) of hydromorphone in rat plasma ([9]; OVA 100 mg/kg, SBTI 0 mg/kg): 9.7 ± 3.1 ng/mL
Maximum concentration (Cmax) of hydromorphone in rat plasma ([9]; OVA 500 mg/kg, SBTI 0 mg/kg): 11.6 ± 2.5 ng/mL
Maximum concentration (Cmax) of hydromorphone in rat plasma ([9]; OVA 500 mg/kg, SBTI 500 mg/kg): 1.9 ± 0.9 ng/mL
Maximum concentration (Cmax) of hydromorphone in rat plasma ([9]; OVA 1000 mg/kg, SBTI 0 mg/kg): 10.3 ± 3.5 ng/mL
plasma Tmax of hydromorphone ([9]; rat PO, PC-1 20 mg/kg alone): 2.3 h
plasma Tmax of hydromorphone ([9]; rat PO, PC-1 20 mg/kg with 500 mg/kg OVA and 500 mg/kg SBTI): 8.0 h

CN(CCNC(=O)[C@@H](N)CCCNC(=N)N)C(=O)Oc1ccc2c3c1OC1C(=O)CCC4C(C2)N(C)CCC314 (stereo partly drawn) [Compound PC-2, [2-((S)-2-amino-5-guanidino-pentanoylamino)-ethyl]-methyl-carbamic acid hydromorphyl ester]
Cmax of hydromorphone in rat plasma ([10]; SBTI 0 mg/kg): 14.2 ± 2.6 ng/mL
Cmax of hydromorphone in rat plasma ([10]; SBTI 500 mg/kg): 7.3 ± 3.5 ng/mL

CC(=O)N[C@@H](CCCCN)C(=O)NCCN(C)C(=O)Oc1ccc2c3c1OC1C(=O)CCC4C(C2)N(C)CCC314 (stereo partly drawn) [Compound PC-3, (S)-2-Acetylamino-6-amino-hexanoic acid (2-methylamino-ethyl)-amide hydromorphone ester]
Cmax of HM in rat plasma [1, 14]: 3.8 ± 2.9 ng/mL
Tmax of HM in rat plasma [1, 14]: 3.5 h
Cmax of hydromorphone in rat plasma ([11]; SBTI 500 mg/kg): 2.3 ± 1.7 ng/mL
Tmax of hydromorphone in rat plasma ([11]; SBTI 500 mg/kg): 7.3 h
Cmax of hydromorphone in rat plasma ([11]; no inhibitor): 9.0 ± 3.1 ng/mL
Tmax of hydromorphone in rat plasma ([11]; no inhibitor): 2.3 h

CCN(CCNC(=O)[C@H](CCCNC(=N)N)NC(C)=O)C(=O)Oc1ccc2c3c1OC1C(=O)CCC4C(C2)N(C)CCC314 (some centres unmarked) [Compound PC-4]
Cmax of HM in rat plasma ([12]; SBTI 500 mg/kg): 7.5 ± 2.1 ng/mL
Tmax of HM in rat plasma ([12]; SBTI 500 mg/kg): 6.5 h
Cmax of HM in rat plasma ([12]; no inhibitor, 7 rats): 7.7 ± 2.3 ng/mL
Tmax of HM in rat plasma ([12]; no inhibitor, 7 rats): 2.3 h
Cmax of HM in rat plasma [2, 15]: 4.8 ± 1.4 ng/mL
Tmax of HM in rat plasma [2, 15]: 6.0 h
Rate of HM formation, umols/h/umol trypsin ([13]; no trypsin inhibitor, (n = 1)): 322 umols/h/umol trypsin
Rate of HM formation, umols/h/umol trypsin Average ± sd ([13]; with trypsin inhibitor 3,089 uM Compound 109): 3.27 ± 1.87 umols/h/umol trypsin

B1: SBTI: trypsin inhibitor from Glycine max (soybean) (Catalog No. 93620, ˜10,000 units per mg, Sigma-Aldrich) (protein, UniProt P01070 25-205, looked up)
Trypsin inhibitor A: DFVLDNEGNPLENGGTYYILSDITAFGGIRAAPTGNERCPLTVVQSRNELDKGIGTIISSPYRIRFIAEGHPLSLKFDSFAVIMLCVGIPTEWSVVEDLPEGPAVKIGENKDAMDGWFRLERVSDDEFNNYKLVFCPQQAEDDKCGDIGISIDHDDGTRRLVVSKNKPLVVQFQKLDKESL
effect of SBTI on release of hydromorphone from Compound PC-4 ([12]; rat PO, PC-4 20 mg/kg with SBTI 500 mg/kg): attenuates Compound PC-4's ability to release hydromorphone, at least with respect to delaying Tmax
effect of SBTI on release of hydromorphone from Compound PC-2 ([10]; rat PO, PC-2 20 mg/kg with SBTI 500 mg/kg): attenuates Compound PC-2's ability to release hydromorphone, both with respect to suppressing Cmax and delaying Tmax
IC50 (trypsin; Table 7): 270 nM
IC50 (trypsin; Table 20): 270 nM
effect of SBTI on release of hydromorphone from Compound PC-1 ([8]; rat PO, PC-1 20 mg/kg with SBTI 10 to 1000 mg/kg): attenuates Compound PC-1's ability to release hydromorphone in a dose-dependent manner
effect of SBTI on release of hydromorphone from Compound PC-3 ([11]; rat PO, PC-3 20 mg/kg with SBTI 500 mg/kg): attenuates Compound PC-3's ability to release hydromorphone, both with respect to suppressing Cmax and delaying Tmax

B2: ovalbumin: Albumin from chicken egg white (Catalog No. A7641, Sigma-Aldrich), used as a non-trypsin inhibitor protein control (protein, UniProt P01012 2-386, looked up)
Ovalbumin: GSIGAASMEFCFDVFKELKVHHANENIFYCPIAIMSALAMVYLGAKDSTRTQINKVVRFDKLPGFGDSIEAQCGTSVNVHSSLRDILNQITKPNDVYSFSLASRLYAEERYPILPEYLQCVKELYRGGLEPINFQTAADQARELINSWVESQTNGIIRNVLQPSSVDSQTAMVLVNAIVFKGLWEKAFKDEDTQAMPFRVTEQESKPVQMMYQIGLFRVASMASEKMKILELPFASGTMSMLVLLPDEVSGLEQLESIINFEKLTEWTSSNVMEERKIKVYLPRMKMEEKYNLTSVLMAMGITDVFSSSANLSGISSAESLKISQAVHAAHAEINEAGREVVGSAEAGVDAASVSEEFRADHPFLFCIKHIATNAVLFFGRCVSP
effect of ovalbumin on release of hydromorphone from Compound PC-1 ([9]; rat PO, PC-1 20 mg/kg with OVA 20 to 1000 mg/kg): does not significantly affect Compound PC-1's ability to release hydromorphone
